The text below walks through data of ChEMBL document CHEMBL4020739, “Investigation of the structural requirements of K-Ras(G12D) selective inhibitory peptide KRpep-2d using alanine scans and cysteine bridging” (Bioorg Med Chem Lett, 2017).

In assay [1] the target is GTPase KRas (Homo sapiens, UniProt P01116). Kind of assay: Inhibition of biotinylated wild-type K-Ras (unknown origin) assessed as inhibition of human SOS1 (564 to 1049 residues)-mediated BODIPY-GDP-GTP exchange after 1 hr by TR-FRET assay.
For assay [2], the target named is GTPase KRas (Homo sapiens, UniProt P01116, G12C). Put plainly: Inhibition of biotinylated K-Ras G12C mutant (unknown origin) assessed as reduction in SOS1 (564 to 1049 residues)-mediated BODIPY-GDP-GTP exchange after 1 hr by TR-FRET assay. (In TR-FRET formats the signal depends on donor and acceptor labels being close together.)
For assay [3], the target named is T1, GTPase KRas (Homo sapiens, UniProt P01116, G12D). Put plainly: Inhibition of biotinylated K-Ras G12D mutant (unknown origin) assessed as reduction in SOS1 (564 to 1049 residues)-mediated BODIPY-GDP-GTP exchange after 1 hr by TR-FRET assay.
Assay [4] has as its target T1, GTPase KRas. Kind of assay: Inhibition of biotinylated K-Ras G12D mutant (unknown origin) assessed as reduction in SOS1 (564 to 1049 residues)-mediated BODIPY-GDP-GTP exchange after 1 hr in presence of DTT by TR-FRET assay.
The species entered for assay [5] is Homo sapiens. Put plainly: Selectivity ratio of IC50 for inhibition of biotinylated wild type K-Ras (unknown origin) to IC50 for inhibition of biotinylated K-Ras G12D mutant (unknown origin).
The species named for assay [6] is Homo sapiens. Kind of assay: Selectivity ratio of IC50 for inhibition of biotinylated K-Ras G12C mutant (unknown origin) to IC50 for inhibition of biotinylated K-Ras G12D mutant (unknown origin).

Peptide text beside a SMILES is read from it.

As for `CC[C@H](C)[C@@H]1NC(=O)[C@H](Cc2ccc(O)cc2)NC(=O)[C@H](CC(C)C)NC(=O)[C@@H]2CCCN2C(=O)[C@@H](NC(=O)[C@H](CCCNC(=N)N)NC(=O)[C@H](CCCNC(=N)N)NC(=O)[C@H](CCCNC(=N)N)NC(=O)[C@H](CCCNC(=N)N)NC(C)=O)CSSC[C@@H](C(=O)N[C@@H](CCCNC(=N)N)C(=O)N[C@@H](CCCNC(=N)N)C(=O)N[C@@H](CCCNC(=N)N)C(=O)N[C@@H](CCCNC(=N)N)C(N)=O)NC(=O)[C@H](C(C)C)NC(=O)[C@@H]2CCCN2C(=O)[C@H](CC(=O)O)NC(=O)[C@H](Cc2ccc(O)cc2)NC(=O)[C@H](C)NC1=O` (HELM PEPTIDE1{[ac].R.R.R.R.C.P.L.Y.I.A.Y.D.P.V.C.R.R.R.R.[am]}$PEPTIDE1,PEPTIDE1,6:R3-16:R3$$$V2.0), the IC50 was 0.764 µM at GTPase KRas [1], 0.036 µM at GTPase KRas [2], 0.0063 µM at GTPase KRas [3] and 0.022 µM on GTPase KRas [4]. Moreover, the Ratio IC50 is 121 in the assay listed under Homo sapiens [5] and 6 in the assay listed under Homo sapiens [6].
For `CC[C@H](C)[C@@H]1NC(=O)[C@H](Cc2ccc(O)cc2)NC(=O)[C@H](CC(C)C)NC(=O)[C@@H]2CCCN2C(=O)[C@@H](NC(=O)[C@H](CCCNC(=N)N)NC(=O)[C@H](CCCNC(=N)N)NC(=O)[C@H](CCCNC(=N)N)NC(=O)[C@H](CCCNC(=N)N)NC(C)=O)CSSC[C@@H](C(=O)N[C@@H](CCCNC(=N)N)C(=O)N[C@@H](CCCNC(=N)N)C(=O)N[C@@H](CCCNC(=N)N)C(=O)N[C@@H](CCCNC(=N)N)C(N)=O)NC(=O)[C@H](C(C)C)NC(=O)[C@@H]2CCCN2C(=O)[C@H](C)NC(=O)[C@H](Cc2ccc(O)cc2)NC(=O)[C@H](CO)NC1=O` (HELM PEPTIDE1{[ac].R.R.R.R.C.P.L.Y.I.S.Y.A.P.V.C.R.R.R.R.[am]}$PEPTIDE1,PEPTIDE1,6:R3-16:R3$$$V2.0), the IC50 at GTPase KRas [1] was 65 µM; on GTPase KRas [2], 0.975 µM; at GTPase KRas [3] it was 15.4 µM; on GTPase KRas [4], greater than 100 µM. Also, the Ratio IC50 in the assay listed under Homo sapiens [5] was determined as 4; in the assay filed under Homo sapiens [6] it was 0.06.
As to `CC[C@H](C)[C@@H]1NC(=O)[C@H](Cc2ccc(O)cc2)NC(=O)[C@H](CC(C)C)NC(=O)[C@@H]2CCCN2C(=O)[C@@H](NC(=O)[C@H](CCCNC(=N)N)NC(=O)[C@H](CCCNC(=N)N)NC(=O)[C@H](CCCNC(=N)N)NC(=O)[C@H](CCCNC(=N)N)NC(C)=O)CSSC[C@@H](C(=O)N[C@@H](CCCNC(=N)N)C(=O)N[C@@H](CCCNC(=N)N)C(=O)N[C@@H](CCCNC(=N)N)C(=O)N[C@@H](CCCNC(=N)N)C(N)=O)NC(=O)[C@H](C(C)C)NC(=O)[C@H](C)NC(=O)[C@H](CC(=O)O)NC(=O)[C@H](Cc2ccc(O)cc2)NC(=O)[C@H](CO)NC1=O` (HELM PEPTIDE1{[ac].R.R.R.R.C.P.L.Y.I.S.Y.D.A.V.C.R.R.R.R.[am]}$PEPTIDE1,PEPTIDE1,6:R3-16:R3$$$V2.0), the IC50 at GTPase KRas [1] stood at 0.216 µM; at GTPase KRas [2], 0.012 µM; on GTPase KRas [3], 0.0027 µM; at GTPase KRas [4], 0.0074 µM. The Ratio IC50 in the assay filed under Homo sapiens [5] was determined as 80; in the assay filed under Homo sapiens [6], 4.
Regarding `CC(=O)N[C@@H](CCCNC(=N)N)C(=O)N[C@@H](CCCNC(=N)N)C(=O)N[C@@H](CCCNC(=N)N)C(=O)N[C@@H](CCCNC(=N)N)C(=O)N[C@H]1CSSC[C@@H](C(=O)N[C@@H](CCCNC(=N)N)C(=O)N[C@@H](CCCNC(=N)N)C(=O)N[C@@H](CCCNC(=N)N)C(=O)N[C@@H](CCCNC(=N)N)C(N)=O)NC(=O)[C@H](C(C)C)NC(=O)[C@@H]2CCCN2C(=O)[C@H](CC(=O)O)NC(=O)[C@H](Cc2ccc(O)cc2)NC(=O)[C@H](CO)NC(=O)[C@H](C)NC(=O)[C@H](Cc2ccc(O)cc2)NC(=O)[C@H](CC(C)C)NC(=O)[C@@H]2CCCN2C1=O` (HELM PEPTIDE1{[ac].R.R.R.R.C.P.L.Y.A.S.Y.D.P.V.C.R.R.R.R.[am]}$PEPTIDE1,PEPTIDE1,6:R3-16:R3$$$V2.0), the IC50 on GTPase KRas [1] worked out at 39.3 µM; at GTPase KRas [2], 5.19 µM; on GTPase KRas [3] it was 20.6 µM; on GTPase KRas [4] it was 73.5 µM. In addition, the Ratio IC50 in the assay listed under Homo sapiens [5] is 2; in the assay filed under Homo sapiens [6], 0.3.

For orientation: IC50 means the concentration at which inhibition is half-maximal.
